Data taken from ChEMBL document CHEMBL1135481, “SMall Molecule Growth 2001 (SMoG2001): an improved knowledge-based scoring function for protein-ligand interactions” (J Med Chem, 2002).
Numbered stars: 1 amine (or outer) side, 2 acyl side, 3 side chain; on linkers, the order of the positions; unused ones are H or OH. Square brackets hold non-standard residues; d marks the D form. Peptide text beside a SMILES is read from it. * marks the point of attachment. Phe(ψ(S)CH(OH)CH2N)Pro = O=C([C@@H]1CCCN1C[C@H](O)[C@H](Cc1ccccc1)N[*:1])[*:2]; X1 = CC(C)CC(C[C@H](O)[C@H](CC1CCCCC1)N[*:1])C(=O)[*:2]; Nle = CCCC[C@H](N)C(=O)O; Orn = NCCC[C@H](N)C(=O)O; Boc = CC(C)(C)OC(=O)*

Key:
[1] = target: Serine protease 1 (Homo sapiens) (UniProt P07477); experiment: Binding affinity against trypsin
Sequence of Serine protease 1 (Homo sapiens) (P07477 whole entry): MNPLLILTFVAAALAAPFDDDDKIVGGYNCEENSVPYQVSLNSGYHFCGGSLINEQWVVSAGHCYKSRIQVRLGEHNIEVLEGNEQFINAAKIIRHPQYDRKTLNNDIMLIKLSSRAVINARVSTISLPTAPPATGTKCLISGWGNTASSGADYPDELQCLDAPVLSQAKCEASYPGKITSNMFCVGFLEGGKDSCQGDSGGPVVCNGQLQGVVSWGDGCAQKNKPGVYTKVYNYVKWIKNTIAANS

[2] = target: T1, Mast cell carboxypeptidase A (Homo sapiens) (UniProt P15088); experiment: Binding affinity against Carboxypeptidase A
T1 sequence (whole entry): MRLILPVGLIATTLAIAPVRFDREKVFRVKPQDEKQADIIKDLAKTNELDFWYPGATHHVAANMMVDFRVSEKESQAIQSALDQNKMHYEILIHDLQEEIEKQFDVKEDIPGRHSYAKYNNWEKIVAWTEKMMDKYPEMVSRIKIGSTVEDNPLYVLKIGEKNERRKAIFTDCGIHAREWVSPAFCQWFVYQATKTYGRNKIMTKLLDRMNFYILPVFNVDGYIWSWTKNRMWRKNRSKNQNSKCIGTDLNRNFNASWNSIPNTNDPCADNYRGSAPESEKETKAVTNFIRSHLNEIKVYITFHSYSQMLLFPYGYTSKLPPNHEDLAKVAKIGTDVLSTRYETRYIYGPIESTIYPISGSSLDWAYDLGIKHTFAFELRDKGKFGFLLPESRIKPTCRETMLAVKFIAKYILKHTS

[3] = target: Human immunodeficiency virus type 1 protease (Human immunodeficiency virus 1) (UniProt Q72874); experiment: Affinity for HIV Protease
[4] = Binding affinity against Arabinose binding protein of the compound
[5] = Binding affinity against Neuraminidase
[6] = tested on: Purine nucleoside phosphorylase; experiment: Binding affinity against Purine Nucleoside Phosphorylase
[7] = target: T2, Thermolysin (Bacillus thermoproteolyticus) (UniProt P00800); experiment: Binding affinity against Thermolysin
T2 sequence (whole entry): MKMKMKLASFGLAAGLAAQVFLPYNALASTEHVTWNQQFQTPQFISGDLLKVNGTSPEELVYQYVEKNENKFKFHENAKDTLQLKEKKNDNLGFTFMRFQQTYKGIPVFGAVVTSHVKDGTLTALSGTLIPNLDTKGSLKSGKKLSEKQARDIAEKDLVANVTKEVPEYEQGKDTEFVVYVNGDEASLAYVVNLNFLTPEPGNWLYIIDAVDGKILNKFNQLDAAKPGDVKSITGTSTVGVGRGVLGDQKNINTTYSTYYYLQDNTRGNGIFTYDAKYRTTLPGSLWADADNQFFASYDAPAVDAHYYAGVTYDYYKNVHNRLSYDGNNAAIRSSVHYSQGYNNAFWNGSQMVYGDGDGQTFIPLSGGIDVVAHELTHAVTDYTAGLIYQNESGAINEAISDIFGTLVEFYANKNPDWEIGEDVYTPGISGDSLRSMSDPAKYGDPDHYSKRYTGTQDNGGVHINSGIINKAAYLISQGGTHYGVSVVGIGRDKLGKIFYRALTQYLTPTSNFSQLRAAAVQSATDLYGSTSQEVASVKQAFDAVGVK

[8] = Binding affinity against Histidine-binding protein
[9] = Binding affinity against Endothiapepsin
[10] = target: T3, Fatty acid-binding protein, intestinal (Homo sapiens) (UniProt P12104); experiment: Binding affinity against Fatty acid-binding protein
T3 sequence (whole entry): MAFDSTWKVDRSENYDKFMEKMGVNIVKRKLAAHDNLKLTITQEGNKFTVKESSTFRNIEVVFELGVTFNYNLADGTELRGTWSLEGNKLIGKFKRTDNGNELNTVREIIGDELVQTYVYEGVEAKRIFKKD

[11] = Binding affinity against Penicillopepsin
[12] = Binding affinity against Xylose isomerase
[13] = Binding affinity against immunoglobulin
[14] = Binding affinity against TP isomerase
Trypsin II (Bos taurus) = target: T4, Trypsin II (Bos taurus) (UniProt Q29463); experiment: log Kd (Binding affinity against specified protein) value of the compound
T4 sequence (whole entry): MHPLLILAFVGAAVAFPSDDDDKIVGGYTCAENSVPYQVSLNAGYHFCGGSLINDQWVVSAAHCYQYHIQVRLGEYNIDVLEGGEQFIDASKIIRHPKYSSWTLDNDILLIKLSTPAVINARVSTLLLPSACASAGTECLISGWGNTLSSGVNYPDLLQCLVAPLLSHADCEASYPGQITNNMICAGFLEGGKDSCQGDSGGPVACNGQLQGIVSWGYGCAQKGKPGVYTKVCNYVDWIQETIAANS

[15] = Binding affinity against Glucoamylase
[16] = Binding affinity against Glucose binding protein
[17] = Binding affinity against enolase
[18] = Binding affinity against Retinol-binding protein
[19] = Binding affinity against FK506 binding protein

NCCCCc1ccccc1
Log Kd [1]: -1.7

NCCCC[C@H](NC(=O)CN)C(=O)O (H-Gly-Lys-OH)
Log Kd [2]: -3.89

CC(C)[C@H](NC(=O)N(C)Cc1ccccn1)C(=O)N[C@@H](Cc1ccccc1)[C@H](O)[C@H](O)[C@H](Cc1ccccc1)NC(=O)[C@@H](NC(=O)N(C)Cc1ccccn1)C(C)C
Log Kd [3]: -10.1

OC[C@H]1O[C@@H](O)[C@H](O)[C@@H](O)[C@H]1O
Log Kd [4]: -6.65

O=C(N[C@H]1c2ccccc2C[C@H]1O)[C@H](Cc1ccccc1)CC(O)C[C@@H](Cc1ccccc1)C(=O)N[C@H]1c2ccccc2C[C@H]1O
Log Kd [3]: -9.15

CC(=O)N[C@H]1[C@H]([C@H](O)[C@H](O)CO)OC(C(=O)O)=C[C@@H]1O
Log Kd [5]: -5.31

O=P(O)(O)OP(=O)(O)OP(=O)(O)OP(=O)(O)OP(=O)(O)OC[C@H]1O[C@@H](n2cnc3cncnc32)[C@H](O)[C@@H]1O
Log Kd [6]: -5.96

CC(C)C[C@H](NC(CCc1ccccc1)C(=O)O)C(=O)N[C@@H](Cc1c[nH]c2ccccc12)C(=O)O (some centres undefined)
Log Kd [7]: -7.13

O=[N+]([O-])Nc1ccccc1
Log Kd [7]: -6.37

N[C@@H](Cc1c[nH]cn1)C(=O)O
Log Kd [8]: -7.31

CC(C)C[C@H](NC(=O)C[C@H](O)[C@H](CC1CCCCC1)NC(=O)CC[C@H](O)[C@H](Cc1ccccc1)NC(=O)OC(C)(C)C)C(=O)NCc1cccc(CN)c1
Log Kd [9]: -4.8

CC(C)[C@H](N)C(=O)N[C@@H](Cc1c[nH]c2ccccc12)C(=O)O (H-Val-Trp-OH)
Log Kd [7]: -5.91

CCCC[C@H](NC(=O)[C@H](CCCC)NC(=O)[C@@H](NC(=O)[C@@H](NC(C)=O)[C@@H](C)O)[C@@H](C)CC)C(=O)N[C@@H](CCCN)C(=O)N[C@@H](CCCN=C(N)N)C(N)=O (Ac-TI[Nle][Nle][Orn]R-NH2)
Log Kd [3]: -6.11

COC(=O)[C@@H](NC(=O)[C@@H](NC(=O)[C@H](C)N1CCC([C@H](C)NC(=O)[C@H](C)N)=C[C@@H](Cc2ccccc2)C1)C(C)C)C(C)C
Log Kd [3]: -6.37

CCCCCCCCCCCCCCCC(=O)O
Log Kd [10]: -5.43

CC(C)CC(C[C@H](O)[C@H](CC1CCCCC1)NC(=O)[C@H](Cc1c[nH]cn1)NC(=O)[C@H](Cc1ccccc1)NC(=O)OC(C)(C)C)C(=O)N[C@@H](CCCCN)C(=O)N[C@@H](Cc1ccccc1)C(=O)O (some centres undefined) (Boc-FH[X1]KF-OH)
Log Kd [9]: -7.11

CC[C@H](C)[C@H](NC(=O)[C@@H]1CCCN1C[C@H](O)[C@H](Cc1ccccc1)NC(=O)[C@H](CC(N)=O)NC(=O)[C@H](CC(C)C)NC(=O)[C@H](CO)NC(C)=O)C(=O)N[C@H](C(=O)OC)C(C)C (Ac-SLN[Phe(ψ(S)CH(OH)CH2N)Pro]IV-OMe)
Log Kd [3]: -9.63

CC(C)[C@H](NC(=O)N(C)Cc1ccccn1)C(=O)N[C@@H](Cc1ccccc1)C[C@@H](O)[C@H](Cc1ccccc1)NC(=O)[C@@H](NC(=O)N(C)Cc1ccccn1)C(C)C
Log Kd [3]: -10.5

CCOC(=O)CC(O)C(CC(C)C)NC(=O)[C@@H](NC(=O)[C@@H](NC(=O)CC(C)C)C(C)C)C(C)C (some centres undefined)
Log Kd [11]: -7.71

OC[C@@H](O)[C@H](O)[C@@H](O)CO
Log Kd [12]: -5.83

C[C@H]1OC(O)[C@H](O)[C@@H](O)[C@H]1O (some centres undefined)
Log Kd [4]: -5.43

CC(C)C[C@H](N)C(=O)NO
Log Kd [7]: -3.72

N#Cc1ccc(NC(=N)NC(c2ccccc2)c2ccccc2)cc1
Log Kd [13]: -7.28

CC[C@H](C)[C@H](NC(=O)[C@@H](NC[C@H](CC(C)C)NC(=O)[C@H](Cc1c[nH]cn1)NC(=O)[C@H](Cc1ccccc1)NC(=O)[C@@H]1CCCN1C(=O)[C@H](Cc1c[nH]cn1)NC(=O)[C@@H]1CCCN1)C(C)C)C(=O)N[C@@H](Cc1c[nH]cn1)C(=O)N[C@@H](CCCCN)C(=O)O
Log Kd [9]: -6.8

CC(C)[C@H](NC(=O)N(C)Cc1ccccn1)C(=O)N[C@@H](Cc1ccccc1)C(O)C(O)[C@H](Cc1ccccc1)NC(=O)[C@@H](NC(=O)N(C)Cc1ccccn1)C(C)C (single isomer, unassigned)
Log Kd [3]: -10.1

CCOC(=O)CC(OP(=O)(O)O)C(CC(C)C)NC(=O)[C@@H](NC(=O)[C@@H](NC(=O)CC(C)C)C(C)C)C(C)C (some centres undefined)
Log Kd [11]: -7.66

O=C(O)COP(=O)(O)O
Log Kd [14]: -4.82

N=C(N)c1ccccc1
Log Kd (Trypsin II (Bos taurus)): -1.83
Log Kd [1]: -4.74

CC(C)C[C@H](NP(=O)(O)O[C@@H]1O[C@@H](C)[C@H](O)[C@@H](O)[C@H]1O)C(=O)N[C@@H](Cc1c[nH]c2ccccc12)C(=O)O
Log Kd [7]: -7.56

OC[C@H]1NC[C@H](O)[C@@H](O)[C@@H]1O
Log Kd [15]: -4.02

CC1(C)SC(C(NC(=O)Cc2ccccc2)C(=O)NCc2ccccc2)NC1C(=O)NC(CO)Cc1ccccc1 (centres undefined)
Log Kd [3]: -8.1

OC[C@H]1OC(O)[C@H](O)[C@@H](O)[C@@H]1O (some centres undefined)
Log Kd [16]: -7.6

O=C1N(Cc2ccc3ccccc3c2)[C@H](Cc2ccccc2)[C@H](O)[C@@H](O)[C@@H](Cc2ccccc2)N1Cc1ccc2ccccc2c1
Log Kd [3]: -9.52

CC1(C)SC(C(NC(=O)Cc2ccccc2)C(=O)NCc2ccccc2)NC1C(=O)NC(Cc1ccccc1)C(O)CC(=O)NCC1=NC2C=CC=CC2=N1 (centres undefined)
Log Kd [3]: -9.69

CC[C@H](C)[C@@H](NC(=O)[C@@H](C[C@H](O)[C@H](CC(C)C)NC(=O)[C@H](Cc1c[nH]cn1)NC(=O)[C@H](Cc1ccccc1)NC(=O)[C@@H]1CCCN1C(=O)[C@@H](N)Cc1c[nH]cn1)C(C)C)C(=O)N[C@@H](Cc1c[nH]cn1)C(=O)O
Log Kd [9]: -9.02

CC(C)N(C[C@H](O)[C@H](CC1CCCCC1)NC(=O)[C@H](Cc1c[nH]cn1)NC(=O)[C@H](Cc1ccccc1)NC(=O)OC(C)(C)C)C(=O)N[C@@H](CCCCN)C(=O)N[C@@H](Cc1ccccc1)C(=O)O
Log Kd [9]: -6.58

CCC(C)CNC(=O)C(CC(C)C)CC(O)C(CC1CCCCC1)NC(=O)C(Cc1c[nH]cn1)NC(=O)C(Cc1cccc2ccccc12)Cc1cccc2ccccc12 (centres undefined)
Log Kd [9]: -6.63

O=P(O)(O)OP(=O)(O)OP(=O)(O)OP(=O)(O)OC[C@H]1O[C@@H](n2cnc3cncnc32)[C@H](O)[C@@H]1O
Log Kd [6]: -5.85

O=P(O)(O)OP(=O)(O)OC[C@H]1O[C@@H](n2cnc3cncnc32)[C@H](O)[C@@H]1O
Log Kd [6]: -6.22

CC(C)[C@H](NC(=O)N(C)Cc1ccccn1)C(=O)N[C@@H](Cc1ccccc1)[C@@H](O)[C@H](O)[C@H](Cc1ccccc1)NC(=O)[C@@H](NC(=O)N(C)Cc1ccccn1)C(C)C
Log Kd [3]: -9.01

CC(C)C[C@H](NP(=O)(O)O)C(N)=O
Log Kd [7]: -5.89

O=C(CP(=O)(O)O)NO
Log Kd [17]: -10.8

CC1=C(/C=C/C(C)=C/C=C/C(C)=C/CO)C(C)(C)CCC1
Log Kd [18]: -6.72

C[C@@H](O)[C@H](NC(=O)[C@@H]1CCCN1)C(=O)N[C@@H](CCC(=O)O)C(=O)N[C@H](CN[C@@H](Cc1ccccc1)C(=O)N[C@@H](CCCN=C(N)N)C(=O)N[C@@H](CCC(=O)O)C(=O)O)Cc1ccccc1
Log Kd [9]: -7.22

OC1OC[C@H](O)[C@H](O)[C@H]1O (some centres undefined)
Log Kd [4]: -7.03

C=CC[C@@H]1/C=C(\C)C[C@H](C)C[C@H](OC)[C@H]2O[C@@](O)(C(=O)C(=O)N3CCCC[C@H]3C(=O)O[C@H](/C(C)=C/[C@@H]3CC[C@@H](O)[C@H](OC)C3)[C@H](C)[C@@H](O)CC1=O)[C@H](C)C[C@@H]2OC
Log Kd [19]: -9.7

CC=O
Log Kd [3]: -8.41

CC(C)CN(C[C@@H](O)[C@H](Cc1ccccc1)NC(=O)O[C@H]1CCOC1)S(=O)(=O)c1ccc(N)cc1
Log Kd [3]: -9.23
